Results published in patent publication US20170198292A1, “Methods and Compositions for Modulating Lung Cancer Tumor Initiating Cells (TIC), and Oxytocin Receptor (OXTR) Modulatory Agents for Use in Practicing the Same” (The Board of Trustees of the Leland Stanford Junior …, priority 2014, published 2017).

What was measured:
Format in all cases: cell-based, human
[1] = test system: regular H226 and H520 cells; experiment: Proliferation of regular cancer cells; conditions: for cell proliferation of regular H226 and H520 cells: 3-day treatment
Method: All gene expression and survival data were obtained from publicly-available resources: NCI TCGA and NCBI GEO. Human lung cancer tissue samples were purchased from US Biomax. Cell imaging was acquired using a confocal laser scanning microscope at the Stanford Fluorescence Microscopy Core. FACS was done at the Stanford FACS core facility. All sphere-forming assays and mouse xenograft model were performed at the Stanford Transgenic, Knockout and Tumor Model Center. qRT-PCR and sequencing was performed at Stanford Protein and Nucleic Acid Facility. • A. Text mining of lung TIC associated literature. PubMed literatures were queried on Apr. 13, 2015, using the search term, (“Neoplastic Stem Cells”[majr] OR “tumor-propagating cells”[All Fields]) AND “lung cancer”[All Fields]. […] Words with a prefix “CD” followed by digits were extracted from the title and abstract of each article. Resulted terms were manually examined. Immune cell CD markers were excluded from the list. CD marker with positive sign, such as CD133+, was treated as different from CD133 or CD133−. The number of unique occurrence of each term is counted in titles and abstracts. Terms occurred in at least two different articles were selected for ranking by its occurrence frequency. • B. Primary Tumor Cell Preparation. SQCC samples were collected from patients according to protocols approved by the Stanford IRB board. Samples were washed, dissociated, and incubated in DNase and collagenase/dispase. After incubation, cell clusters and red blood cells were removed. The single cells were resuspended and prepared for cell culture and staining. • C. Microarray datasets. The TOGA lung cancer gene expression datasets were downloaded from the TOGA data portal on September 2012. […] Meta-analysis of correlations were performed using R package meta, where fixed and random effects estimates were calculated and inverse variance weighting was used for pooling. […] Quantitative IF imaging signal of human lung tissue samples were measured using the Bioquant image analysis software in the Nikon 8000 microscope and Leica DMI 6000B. • E. Flow Cytometry. […]

H226 and H520 cells = experiment: Colony formation; conditions: statistically significant at 0.5 μM, 5 μM and 10 μM
From the text: To determine whether the expression of OXTR is associated with the growth of regular cancer cells and TICs, we treated regular cancer cells and tumor spheres of SQCC cell lines with an OXTR specific inhibitor (Manning et al.,“Oxytocin and vasopressin agonists and antagonists as research tools and potential therapeutics,” Journal of neuroendocrinology (2012) 24: 609-628), L-368,899 (L3) to suppress its activity, or its natural ligand oxytocin (OXT) to induce its activity.

[2] = test system: tumor spheres derived from primary SQCC cells; experiment: Sphere-forming assay, primary SQCC cells; conditions: at 5 μM; three days
Method: All gene expression and survival data were obtained from publicly-available resources: NCI TCGA and NCBI GEO. Human lung cancer tissue samples were purchased from US Biomax. Cell imaging was acquired using a confocal laser scanning microscope at the Stanford Fluorescence Microscopy Core. FACS was done at the Stanford FACS core facility. All sphere-forming assays and mouse xenograft model were performed at the Stanford Transgenic, Knockout and Tumor Model Center. qRT-PCR and sequencing was performed at Stanford Protein and Nucleic Acid Facility. • A. Text mining of lung TIC associated literature. PubMed literatures were queried on Apr. 13, 2015, using the search term, (“Neoplastic Stem Cells”[majr] OR “tumor-propagating cells”[All Fields]) AND “lung cancer”[All Fields]. […] Words with a prefix “CD” followed by digits were extracted from the title and abstract of each article. Resulted terms were manually examined. […] The number of unique occurrence of each term is counted in titles and abstracts. […] Meta-analysis of correlations were performed using R package meta, where fixed and random effects estimates were calculated and inverse variance weighting was used for pooling. […] Quantitative IF imaging signal of human lung tissue samples were measured using the Bioquant image analysis software in the Nikon 8000 microscope and Leica DMI 6000B. • E. Flow Cytometry. […]

[3] = test system: tumor spheres of H226 and H520 cells; experiment: Sphere-forming assay (tumor spheres / TIC growth)
Method: All gene expression and survival data were obtained from publicly-available resources: NCI TCGA and NCBI GEO. Human lung cancer tissue samples were purchased from US Biomax. Cell imaging was acquired using a confocal laser scanning microscope at the Stanford Fluorescence Microscopy Core. FACS was done at the Stanford FACS core facility. All sphere-forming assays and mouse xenograft model were performed at the Stanford Transgenic, Knockout and Tumor Model Center. qRT-PCR and sequencing was performed at Stanford Protein and Nucleic Acid Facility. • A. Text mining of lung TIC associated literature. PubMed literatures were queried on Apr. 13, 2015, using the search term, (“Neoplastic Stem Cells”[majr] OR “tumor-propagating cells”[All Fields]) AND “lung cancer”[All Fields]. […] Words with a prefix “CD” followed by digits were extracted from the title and abstract of each article. Resulted terms were manually examined. Immune cell CD markers were excluded from the list. CD marker with positive sign, such as CD133+, was treated as different from CD133 or CD133−. The number of unique occurrence of each term is counted in titles and abstracts. Terms occurred in at least two different articles were selected for ranking by its occurrence frequency. • B. Primary Tumor Cell Preparation. SQCC samples were collected from patients according to protocols approved by the Stanford IRB board. Samples were washed, dissociated, and incubated in DNase and collagenase/dispase. After incubation, cell clusters and red blood cells were removed. The single cells were resuspended and prepared for cell culture and staining. • C. Microarray datasets. The TOGA lung cancer gene expression datasets were downloaded from the TOGA data portal on September 2012. No significant changes in available sample size were found during a recent check. These datasets were selected based on two criteria: explicit pathological diagnosis of SQCC and associated with an actual publication. Pearson or Spearman correlation analysis was used for the association study, depending on whether the distribution of the gene expression data is parametric or non-parametric. Multiple hypothesis testing was corrected using false discovery rates to select associations with a q value less than 0.1. Meta-analysis of correlations were performed using R package meta, where fixed and random effects estimates were calculated and inverse variance weighting was used for pooling. Survival data was extracted from all the datasets whenever they were available. Proportional hazards regression analysis was performed with the gene expression of OXTR and CD133 as covariates. Proportional hazard hypothesis was test based on weighted residuals. • D. Cell Culture and Imaging. H226, H520, HCC827, H522 and NL20 cell lines were purchased from ATCC and cultured in recommended cell medium for bulk cancer cell growth. HCC95 and H157 were from Dr. Sage's laboratory. APC conjugated mouse anti-CD133 Ab (BioLegend 14208), goat anti-OXTR Ab (Life Technologies ab87312) with anti-goat Alexa488 (Life Technologies A11055), rabbit anti-CD44 (Santa Cruz Biotech sc-7946) with anti-rabbit Alexa594 (Life Technologies A21207) and rabbit anti-OXT with anti-rabbit Alexa594 were used to stain CD133, OXTR, CD44 and OXT respectively in human tissue samples and cell lines for immunofluorescence (IF) imaging. Goat F(ab′)2 IgG (Life Technologies 11301C) and isotype control for rabbit primary Ab (Life Technology 08-6199) were used as isotype control of OXTR Ab and CD133 Ab. Quantitative IF imaging signal of human lung tissue samples were measured using the Bioquant image analysis software in the Nikon 8000 microscope and Leica DMI 6000B. • E. Flow Cytometry. Cells were stained with CD133, CD44 or OXTR Ab separately for single channel counting, and stained with CD133 and OXTR Ab for double channel counting and sorting. Cells were also stained for secondary Ab alone for subtraction of non-specific binding. […]

ERK1/2 = ERK1/2 phosphorylation, western blot

Compound | cell proliferation of regular H226 and H520 cells [1] | colony formation of H226 and H520 cells (H226 and H520 cells) | sphere growth of tumor spheres derived from primary SQCC cells [2] | tumor sphere numbers ([3]; H226 and H520 cells, after 3 days of treatment, statistically significant at 5 μM and 10 μM) | phosphorylation of ERK1/2 in regular H226 and H520 cells (ERK1/2; 100 nM for two days, compared to solvent control) | phosphorylation of ERK1/2 in TICs (ERK1/2; 100 nM for two days, compared to solvent control, tumor spheres of H226 and H520) | tumor sphere size vs solvent control ([3]; H226 and H520 tumor spheres treated for three days) | tumor sphere growth ([3]; both cell lines (H226, H520), statistically significant at as low as 10 nM) | proliferation in regular cancer cells ([1]; H226 and H520 cells) | OXT induced phosphorylation of ERK1/2 (ERK1/2; CCs and TICs of H226 and H520 cell lines, co-treatment with OXT) | rescue of the inhibitory effect by increasing dose of OXT ([3]; H226 and H520) | TIC growth ([3]; H226 and H520 spheres) | OXT induced increase of TIC growth ([3]; both H226 and H520 cells, co-treatment with OXT)
Cc1ccccc1N1CCN(S(=O)(=O)C[C@]23CC[C@H](C[C@@H]2NC(=O)[C@@H](N)CCS(C)(=O)=O)C3(C)C)CC1 [L3, (S)-2-amino-N-((1S,2S,4R)-7,7-dimethyl-1-((4-o-tolylpiperazin-1-lsulfonyl)methyl)bicyclo[2.2.1]heptan-2-yl)-4-(methylsulfonyl)butanamide] | neither L3 nor OXT affected the cell proliferation | reduced the colony formation | significantly reduced the sphere growth | dose-dependent decrease | – | – | – | – | – | – | – | – | –
CC[C@H](C)[C@@H]1NC(=O)[C@H](Cc2ccc(O)cc2)NC(=O)[C@@H](N)CSSC[C@@H](C(=O)N2CCC[C@H]2C(=O)N[C@@H](CC(C)C)C(=O)NCC(N)=O)NC(=O)[C@H](CC(N)=O)NC(=O)[C@H](CCC(N)=O)NC1=O [OXT, oxytocin] | neither L3 nor OXT affected the cell proliferation | – | – | – | unchanged | greatly increased | significantly larger | dose dependent increase | – | – | – | – | –
N#CC(=C(/N)Sc1ccccc1N)/C(C#N)=C(\N)Sc1ccccc1N [U0126] | – | – | – | – | – | – | – | – | increased proliferation | inhibited | could not be rescued | dose dependent inhibition | blocked
